Calls of active or inactive are those of the source.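 How the source made its calls: active means IC50 at or below 20 µM; inactive means the rest.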
Biological target: Glucose-6-phosphate 1-dehydrogenase (Homo sapiens) (UniProt P11413)
Assay: inhibition of Homo sapiens G6PD, dose series – biochemical, fluorescence, selectivity assay for P. falciparum G6PD inhibitor project, dose response (AID 504792)
Conditions: human G6PD enzyme, NADPH resazurin-diaphorase fluorescence

Chain of Glucose-6-phosphate 1-dehydrogenase (Homo sapiens) (P11413 whole entry, looked up): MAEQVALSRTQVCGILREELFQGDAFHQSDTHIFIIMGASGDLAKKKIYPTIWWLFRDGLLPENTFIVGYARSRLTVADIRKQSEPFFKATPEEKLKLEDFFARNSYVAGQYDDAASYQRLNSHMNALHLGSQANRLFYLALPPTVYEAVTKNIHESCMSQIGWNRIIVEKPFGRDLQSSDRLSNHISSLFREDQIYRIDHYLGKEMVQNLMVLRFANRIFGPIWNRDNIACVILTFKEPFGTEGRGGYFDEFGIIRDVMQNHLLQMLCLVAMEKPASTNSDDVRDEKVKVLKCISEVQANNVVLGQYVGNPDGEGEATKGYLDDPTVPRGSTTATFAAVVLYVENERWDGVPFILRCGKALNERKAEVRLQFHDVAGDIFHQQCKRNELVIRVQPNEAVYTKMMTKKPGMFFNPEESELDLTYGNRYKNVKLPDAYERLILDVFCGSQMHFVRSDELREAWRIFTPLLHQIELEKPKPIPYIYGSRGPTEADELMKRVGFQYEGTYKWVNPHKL

IC50: > 80 µM (inactive)
SMILES: C[c-]1[c-](C)[c-](C)[c-](C)[c-]1C.[Fe].c1cc2nccc(N3CCCC3)[c-]2c1 (stereo unspecified)

Source: PubChem BioAssay AID504792 (Sanford-Burnham Center for Chemical Genomics, 2011)
